Measured values from patent US9833497B2, “Human originated EGF domain proteins and use of the same” (CHENGDU SOURCEBIO LIMITED-LIABILITY COMPANY, priority 2013, dated 2017).

Legend:
Assay type in all cases: cell-based
E. coli BL21 = assay: MIC against Gram-negative bacteria: E. coli BL21
Outline: (§1)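 The recombinant human-originated EGF domain proteins were serially diluted two-fold against bacteria at 5×10^5 CFU/mL in LB medium. After shaken incubation at 37° C, the lowest concentration with no bacterial growth was recorded as the MIC.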

Pseudomonas aeruginosa = assay: MIC against Gram-negative bacteria: Pseudomonas aeruginosa; conditions: for MIC / MIC (μg/mL) P. aeruginosa: P. aeruginosa
Outline: as §1

Klebsiella pneumonia = assay: MIC against Gram-negative bacteria: Klebsiella pneumonia; conditions: for MIC / MIC (μg/mL) K. pneumonia: K. pneumonia
Outline: as §1

Aeromonas hydrophila = assay: MIC against Gram-negative bacteria: Aeromonas hydrophila; conditions: for MIC / MIC (μg/mL) A. hydrophila: A. hydrophila
Outline: as §1

Proteus vulgaris = assay: MIC against Gram-negative bacteria: Proteus vulgaris; conditions: for MIC / MIC (μg/mL) P. vulgaris: P. vulgaris
Outline: as §1

Serratia marcescens = assay: MIC against Gram-negative bacteria: Serratia marcescens; conditions: for MIC / MIC (μg/mL) S. marcescens: S. marcescens
Outline: as §1

Citrobacter diversus = assay: MIC against Gram-negative bacteria: Citrobacter diversus; conditions: for MIC / MIC (μg/mL) C. diversus: C. diversus
Outline: as §1

Enterobacter cloacae = assay: MIC against Gram-negative bacteria: Enterobacter cloacae; conditions: for MIC / MIC (μg/mL) E. cloacae: E. cloacae
Outline: as §1

Moraxella catarrhalis = assay: MIC against Gram-negative bacteria: Moraxella catarrhalis; conditions: for MIC / MIC (μg/mL) M. catarrhalis: M. catarrhalis
Outline: as §1

E. coli DH5α = assay: Antibacterial activity: MIC and growth curve against E. coli DH5α in 96-well plate; conditions: minimal inhibitory concentration against E. coli DH5α; 96-well plate, 5×10^5 CFU/mL, 37° C., judged after 8 h
Outline: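 Log-phase bacteria (OD600 ~0.5) resuspended in LB at 5×10^5 CFU/mL, exposed to recombinant protein at 50, 25, 12.5 μg/mL final in triplicate, 37 °C shaking at 175 rpm. OD600 read every 30 min; MIC is lowest concentration showing no growth.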

Proteus mirabilis = assay: MIC against Gram-negative bacteria: Proteus mirabilis; conditions: for MIC / MIC (μg/mL) P. mirabilis: P. mirabilis
Outline: as §1

[1] = E. coli BL21, 10 h cultivation at 37° C., 5×10^5 CFU/mL
[2] = 10 h cultivation at 37° C., 5×10^5 CFU/mL
[3] = 96-well plate, 5×10^5 CFU/mL, 37° C., 10 h
[4] = E. coli BL21, 10 h cultivation at 37° C.
[5] = 10 h cultivation at 37° C., 5×10^5 CFU/mL, two-fold serial dilution

PRT442 (DINECEQVPKPCAHQCSNTPGSFKCICPPGQHLLGDGKSCA; listed as Homo sapiens)
50 µg/mL: MIC (E. coli BL21; [1]) | MIC (Aeromonas hydrophila; [2])
12.5 µg/mL: MIC (Klebsiella pneumonia; [2]) | MIC (Proteus vulgaris; [2]) | MIC (Moraxella catarrhalis; [2]) | MIC (E. coli DH5α) | MIC (Proteus mirabilis; [2])
25 µg/mL: MIC (Pseudomonas aeruginosa; [2]) | MIC (Serratia marcescens; [2]) | MIC (Citrobacter diversus; [2]) | MIC (Enterobacter cloacae; [2])

PRT1479 (AKNECHPERTDGCQHFCLPGQESYTCSCAQGYRLGEDHKQCV; listed as Homo sapiens)
12.5 µg/mL: MIC against E. coli BL21 (E. coli BL21; E. coli BL21, 5×10^5 CFU/mL, 10 h cultivation at 37° C.) | MIC against A. hydrophila (Aeromonas hydrophila; Aeromonas hydrophila, 5×10^5 CFU/mL, 10 h cultivation at 37° C.) | MIC against S. marcescens (Serratia marcescens; Serratia marcescens, 5×10^5 CFU/mL, 10 h cultivation at 37° C.) | MIC against M. catarrhalis (Moraxella catarrhalis; Moraxella catarrhalis, 5×10^5 CFU/mL, 10 h cultivation at 37° C.)
50 µg/mL: MIC against P. aeruginosa (Pseudomonas aeruginosa; Pseudomonas aeruginosa, 5×10^5 CFU/mL, 10 h cultivation at 37° C.) | MIC against P. vulgaris (Proteus vulgaris; Proteus vulgaris, 5×10^5 CFU/mL, 10 h cultivation at 37° C.) | MIC against C. diversus (Citrobacter diversus; Citrobacter diversus, 5×10^5 CFU/mL, 10 h cultivation at 37° C.) | MIC against E. cloacae (Enterobacter cloacae; Enterobacter cloacae, 5×10^5 CFU/mL, 10 h cultivation at 37° C.) | MIC (E. coli DH5α)
25 µg/mL: MIC against P. mirabilis (Proteus mirabilis; Proteus mirabilis, 5×10^5 CFU/mL, 10 h cultivation at 37° C.)
100 µg/mL: MIC against K. pneumonia (Klebsiella pneumonia; Klebsiella pneumonia, 5×10^5 CFU/mL, 10 h cultivation at 37° C.)

PRT720 (INECHDPSISGCDHNCTDTLTSFYCSCRPGYKLMSDKRTCV; listed as Homo sapiens)
25 µg/mL: MIC E. coli BL21 (E. coli BL21; [3]) | MIC C. diversus (Citrobacter diversus; [3]) | MIC P. mirabilis (Proteus mirabilis; [3])
50 µg/mL: MIC S. marcescens (Serratia marcescens; [3]) | MIC E. cloacae (Enterobacter cloacae; [3]) | MIC M. catarrhalis (Moraxella catarrhalis; [3]) | MIC (E. coli DH5α)
12.5 µg/mL: MIC P. aeruginosa (Pseudomonas aeruginosa; [3]) | MIC K. pneumonia (Klebsiella pneumonia; [3]) | MIC A. hydrophila (Aeromonas hydrophila; [3]) | MIC P. vulgaris (Proteus vulgaris; [3])

PRT633 (TKPSCVPPCQNGGMCLRPQLCVCKPGTKGKACE; listed as Homo sapiens)
50 µg/mL: MIC E. coli BL21 (E. coli BL21; [3]) | MIC K. pneumonia (Klebsiella pneumonia; [3]) | MIC A. hydrophila (Aeromonas hydrophila; [3]) | MIC P. vulgaris (Proteus vulgaris; [3]) | MIC M. catarrhalis (Moraxella catarrhalis; [3])
12.5 µg/mL: MIC P. aeruginosa (Pseudomonas aeruginosa; [3]) | MIC C. diversus (Citrobacter diversus; [3]) | MIC E. cloacae (Enterobacter cloacae; [3]) | MIC (E. coli DH5α) | MIC P. mirabilis (Proteus mirabilis; [3])
25 µg/mL: MIC S. marcescens (Serratia marcescens; [3])

PRT818 (DCRSACNCTAGAACDAVNGSCLCPAGRRGPRCA; listed as Homo sapiens)
12.5 µg/mL: MIC (μg/mL) K. pneumonia (Klebsiella pneumonia; [2]) | MIC (μg/mL) P. vulgaris (Proteus vulgaris; [2]) | MIC (μg/mL) S. marcescens (Serratia marcescens; [2]) | MIC (μg/mL) C. diversus (Citrobacter diversus; [2]) | MIC (μg/mL) E. cloacae (Enterobacter cloacae; [2])
50 µg/mL: MIC (μg/mL) E. coli BL21 (E. coli BL21; [1])
25 µg/mL: MIC (μg/mL) P. aeruginosa (Pseudomonas aeruginosa; [2]) | MIC (μg/mL) A. hydrophila (Aeromonas hydrophila; [2]) | MIC (μg/mL) M. catarrhalis (Moraxella catarrhalis; [2]) | MIC (E. coli DH5α) | MIC (μg/mL) P. mirabilis (Proteus mirabilis; [2])

PRT898 (NNNECESNPCVNGGTCKDMTSGYVCTCREGFSGPNCQ; listed as Homo sapiens)
50 µg/mL: MIC (E. coli BL21; [4]) | MIC (Enterobacter cloacae; 10 h cultivation at 37° C.)
12.5 µg/mL: MIC (Klebsiella pneumonia; 10 h cultivation at 37° C.) | MIC (Aeromonas hydrophila; 10 h cultivation at 37° C.) | MIC (Serratia marcescens; 10 h cultivation at 37° C.) | MIC (Citrobacter diversus; 10 h cultivation at 37° C.) | MIC (Moraxella catarrhalis; 10 h cultivation at 37° C.) | MIC (Proteus mirabilis; 10 h cultivation at 37° C.)
25 µg/mL: MIC (Pseudomonas aeruginosa; 10 h cultivation at 37° C.) | MIC (Proteus vulgaris; 10 h cultivation at 37° C.) | MIC (E. coli DH5α)

PRT942 (LVNLCSRSPCKNKGTCVQKKAESQCLCPSGWAGAYCD; listed as Homo sapiens)
25 µg/mL: MIC (Aeromonas hydrophila; 10 h cultivation at 37° C.) | MIC (E. coli DH5α)
12.5 µg/mL: MIC (Pseudomonas aeruginosa; 10 h cultivation at 37° C.) | MIC (Proteus vulgaris; 10 h cultivation at 37° C.) | MIC (Enterobacter cloacae; 10 h cultivation at 37° C.) | MIC (Moraxella catarrhalis; 10 h cultivation at 37° C.)
50 µg/mL: MIC (E. coli BL21; [4]) | MIC (Klebsiella pneumonia; 10 h cultivation at 37° C.) | MIC (Serratia marcescens; 10 h cultivation at 37° C.) | MIC (Citrobacter diversus; 10 h cultivation at 37° C.) | MIC (Proteus mirabilis; 10 h cultivation at 37° C.)

PRT195 (MGYNCNATTKCKGKGICNNFGNCQCFPGHRPPDCK; listed as Homo sapiens)
25 µg/mL: MIC (μg/mL) P. vulgaris (Proteus vulgaris; [2]) | MIC (μg/mL) M. catarrhalis (Moraxella catarrhalis; [2]) | MIC (E. coli DH5α)
12.5 µg/mL: MIC (μg/mL) E. coli BL21 (E. coli BL21; [1]) | MIC (μg/mL) S. marcescens (Serratia marcescens; [2]) | MIC (μg/mL) C. diversus (Citrobacter diversus; [2]) | MIC (μg/mL) E. cloacae (Enterobacter cloacae; [2])
50 µg/mL: MIC (μg/mL) P. aeruginosa (Pseudomonas aeruginosa; [2]) | MIC (μg/mL) K. pneumonia (Klebsiella pneumonia; [2]) | MIC (μg/mL) A. hydrophila (Aeromonas hydrophila; [2]) | MIC (μg/mL) P. mirabilis (Proteus mirabilis; [2])

PRT925 (DINECHSDPCQNDATCLDKIGGFTCLCMPGFKGVHCE; listed as Homo sapiens)
12.5 µg/mL: MIC (Klebsiella pneumonia; 10 h cultivation at 37° C.) | MIC (Serratia marcescens; 10 h cultivation at 37° C.) | MIC (Moraxella catarrhalis; 10 h cultivation at 37° C.) | MIC (E. coli DH5α)
50 µg/mL: MIC (Pseudomonas aeruginosa; 10 h cultivation at 37° C.) | MIC (Aeromonas hydrophila; 10 h cultivation at 37° C.) | MIC (Proteus vulgaris; 10 h cultivation at 37° C.)
25 µg/mL: MIC (E. coli BL21; [4]) | MIC (Citrobacter diversus; 10 h cultivation at 37° C.) | MIC (Enterobacter cloacae; 10 h cultivation at 37° C.) | MIC (Proteus mirabilis; 10 h cultivation at 37° C.)

PRT1104 (EVDECASDPCKNEATCLNEIGRYTCICPHNYSGVNCE; listed as Homo sapiens)
12.5 µg/mL: MIC E. coli BL21 (E. coli BL21; [5]) | MIC K. pneumonia (Klebsiella pneumonia; [5]) | MIC M. catarrhalis (Moraxella catarrhalis; [5])
50 µg/mL: MIC P. aeruginosa (Pseudomonas aeruginosa; [5]) | MIC A. hydrophila (Aeromonas hydrophila; [5]) | MIC P. vulgaris (Proteus vulgaris; [5]) | MIC (E. coli DH5α)
25 µg/mL: MIC S. marcescens (Serratia marcescens; [5]) | MIC C. diversus (Citrobacter diversus; [5]) | MIC E. cloacae (Enterobacter cloacae; [5]) | MIC P. mirabilis (Proteus mirabilis; [5])
